Measured values reported in ChEMBL document CHEMBL1201862, “PubChem BioAssay data set” (2004).
Values joined by “and” are separate entries in the source; they are usually repeats but may differ in a detail not shown here. Identical values can stand only once.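 The compound was tested at five concentrations on cells cultured in 96-well plates, with a 48-hour exposure period. GI50 = concentration required for 50% inhibition of growth.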 Active and inactive are the calls of the source. Cut-off read from the data, not from the text of the source: active = GI50 up to about 1.1 µM and inactive = higher.

Key:
Test in all cases: NCI tumour cell line growth inhibition, 48 h
[1] = system: A549
[2] = system: OVCAR-5
[3] = system: A498
[4] = system: NCI-H226
[5] = system: HT-29
[6] = system: SNB-19
[7] = system: HOP-92
[8] = system: K562
[9] = system: UO-31
[10] = system: CAKI-1
[11] = system: OVCAR-3
[12] = system: EKVX
[13] = system: HL-60
[14] = system: SK-MEL-5
[15] = system: SK-MEL-28
[16] = system: M14
[17] = system: 786-0
[18] = system: SW-620
[19] = system: DU-145
[20] = system: MDA-MB-435

Measured: GI50

O=C(NC(Cc1ccc(I)cc1)C(=O)O)c1ccc(I)cc1 (stereo unspecified)
inactive: [1] 98.6 µM | [2] > 100 µM | [3] > 100 µM | [4] > 100 µM | [5] > 100 µM | [6] 54.7 µM | [7] 66.7 µM | [8] 59.6 µM | [9] 14.5 µM | [10] > 100 µM | [11] 41.5 µM | [12] > 51.2 µM | [13] > 62.1 µM | [14] > 75.3 µM | [15] 53.3 µM

COc1ccccc1C1C(Cl)C(=O)N1n1cnc2ccccc2c1=O (stereo unspecified)
inactive: [1] > 100 µM | [2] > 100 µM | [16] > 100 µM | [4] > 100 µM | [5] > 100 µM | [17] > 100 µM | [6] 75 µM | [8] > 100 µM | [9] 45.6 µM | [10] > 100 µM | [11] > 100 µM | [12] > 100 µM | [13] > 100 µM | [14] > 100 µM | [15] > 100 µM | [18] > 100 µM

Fc1ccccc1C1CC(C(c2ccccc2)c2ccccc2)=Nc2ccccc2S1 (stereo unspecified)
inactive: [1] 11.4 µM | [2] 12.1 µM | [3] 6.53 µM | [16] 11.9 µM | [4] 13 µM | [5] 5.61 µM | [17] 4.23 µM | [6] 14.4 µM | [8] 2.73 µM | [9] 14 µM | [10] 6.25 µM | [11] 11.3 µM | [12] 10.3 µM | [13] 2.55 µM | [14] 11.2 µM | [15] 12.6 µM | [18] 6.04 µM

COc1cc(C2C(C(=O)O)=C(COC(C)=O)Oc3cc4c(cc32)OCO4)cc(OC)c1OC (stereo unspecified)
inactive: [1] > 100 µM | [2] > 100 µM | [16] > 100 µM | [5] > 100 µM | [6] > 100 µM | [8] > 100 µM | [9] > 100 µM | [10] > 100 µM | [11] > 100 µM | [12] > 100 µM | [13] > 100 µM | [14] > 100 µM | [15] > 100 µM | [18] > 100 µM

c1c2c(cc(-n3nnc4c3CCCCCC4)c1-n1nnc3c1CCCCCC3)CCCCCC2
inactive: [2] 15.8 µM | [3] 10.4 µM | [16] 13.7 µM | [4] 16 µM | [5] 6.93 µM | [6] 12.8 µM | [7] 3.28 µM | [8] 4.36 µM | [9] 5.4 µM | [10] 2.12 µM | [11] 12.1 µM | [12] 10.7 µM | [13] 3.8 µM | [14] 11.7 µM | [15] 17.2 µM | [18] 11.2 µM

COc1ccccc1Cc1nc(-c2ccccc2)nn(C2OC(COC(C)=O)C(OC(C)=O)C(OC(C)=O)C2OC(C)=O)c1=S (stereo unspecified)
inactive: [1] 16.4 µM | [2] > 100 µM | [3] 10.2 µM | [4] 30.5 µM | [5] > 48.3 µM | [6] 5.75 µM | [7] 7.31 µM | [8] > 58.3 µM | [9] > 48.2 µM | [10] 16.8 µM | [11] 21.6 µM | [12] 25.1 µM | [13] > 64.7 µM | [14] 8.73 µM | [15] 49.2 µM | [18] > 72.8 µM

CC1C(=O)C(C)C(c2cccs2)N(N=O)C1c1cccs1 (stereo unspecified)
inactive: [1] > 100 µM | [2] > 100 µM | [4] > 100 µM | [5] > 35 µM | [6] > 100 µM | [7] 68.5 µM | [8] > 80.5 µM | [9] > 100 µM | [10] > 100 µM | [11] 9.27 µM | [12] > 100 µM | [13] > 100 µM | [14] > 100 µM | [15] > 100 µM | [18] > 100 µM

COc1ccc(/C=C2\CCNC2=O)cc1
inactive: [1] > 100 µM | [2] > 100 µM | [3] > 53.7 µM | [4] > 100 µM | [5] > 100 µM | [6] > 100 µM | [7] > 100 µM | [8] > 100 µM | [9] 75.2 µM | [10] > 100 µM | [11] > 100 µM | [12] > 29.4 µM | [13] > 100 µM | [14] > 100 µM | [15] > 100 µM | [18] > 100 µM

Clc1ccc(C(SCc2ccccc2)SCc2ccccc2)cc1
inactive: [1] > 10 µM | [3] > 10 µM | [16] > 10 µM | [4] > 10 µM | [5] > 10 µM | [17] > 10 µM | [6] > 10 µM | [7] > 10 µM | [8] > 10 µM | [9] > 10 µM | [10] > 10 µM | [19] > 10 µM | [11] > 10 µM | [12] > 10 µM | [13] > 10 µM | [14] > 10 µM | [15] > 10 µM | [18] > 10 µM

CC(NC(=O)C(C)NC(=O)C(N)CCP(C)(=O)O)C(=O)O (stereo unspecified)
inactive: [1] > 100 µM | [2] > 100 µM | [3] > 100 µM | [4] > 100 µM | [5] > 100 µM | [6] > 100 µM | [7] > 100 µM | [8] > 100 µM | [9] > 100 µM | [10] > 100 µM | [11] > 100 µM | [12] > 100 µM | [13] > 100 µM | [14] > 100 µM | [15] > 100 µM | [18] > 100 µM

Cc1nc2c(sc(=S)n2-c2ccccc2)c(=O)[nH]1
inactive: [1] > 100 µM | [2] > 100 µM | [3] > 100 µM | [4] > 100 µM | [5] > 100 µM | [6] > 100 µM | [7] > 100 µM | [8] > 100 µM | [9] > 100 µM | [11] > 100 µM | [13] > 100 µM | [14] > 100 µM | [15] > 100 µM | [18] > 100 µM

COc1cc(NC(C)CCCN)c2ncccc2c1 (stereo unspecified) [PRIMAQUINE PHOSPHATE]
inactive: [20] 38 µM | [1] > 100 µM | [2] > 91 µM and > 83.4 µM | [4] > 68.5 µM and 97.9 µM | [5] 37.1 µM and 28.8 µM | [8] 28.9 µM and 20.9 µM | [10] 59 µM and 62.4 µM | [19] 99.1 µM | [11] 22.6 µM and 43.7 µM | [12] > 66.1 µM and 77.3 µM | [13] 8.17 µM and 10.4 µM | [14] 29.8 µM and 17.8 µM | [18] 52.2 µM and 73.8 µM
